Article PMC7083880 (Nature Communications, 2020)
“And” between values parts separate entries of the source, which are not always exact repeats. Equal values may be shown once.

Assays:
[1] = test system: firefly luciferase (Fluc) gene with UAA nonsense codon at position 109 in HeLa cells; experiment: Firefly luciferase readthrough assay, UAA PTC construct; type: cell-based, human; conditions: for Luciferase activity, UAA PTC: G418 1mg/ml
[2] = test system: firefly luciferase construct with UGA PTC in HeLa cells; experiment: UGA readthrough luciferase assay with empty expression vector (E.v.) control; type: cell-based, human;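 on luciferase activity, average: DAP exposure for 24 h before luciferase measurement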;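 on luciferase activity, exp2: DAP exposure for 24 h before luciferase measurement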
From the text: (§1) Firefly luciferase from HEK293FT cells transfected with the Fluc-int-UGA construct was immunoprecipitated and digested with trypsin. The MS/MS spectrum of the peptide containing the PTC position and the sequence determination are shown. The upper red and blue sequences indicate the amino acids validated, respectively, by detection of Nter and Cter peptide fragments (b and y ion series). Peptide fragments y6 and y7 clearly identify tryptophan (W) at the PTC position. The black peaks correspond to non-attributed mass-to-charge ratio (m/z) values. […] Readthrough efficiency was determined by measuring luciferase activity in HeLa cells co-transfected with the firefly luciferase construct described in Fig. 1b and with increasing amounts of an expression vector for either FTSJ1 or CTU1 (0.5, 1, or 2 µg). The empty expression vector (E.v.) was used as control. […] The experiment was performed twice and the results of both experiments (Exp1 and Exp2) are shown. c Western blot analysis of FTSJ1 and CTU1. d 2′-O-methylation analysis of tRNA^Trp, tRNA^SER, and tRNA^GLN by RiboMethSeq. […] A molecular weight marker is indicated to the left of each gel. p-values (p) were calculated using Student’s t-test. Source data are provided as a Source Data file.
(§2) Among the enzymes modifying tRNAs liable to recognize a stop codon by extended wobbling, human FTSJ1 (TRM7 in yeast) exclusively modifies tRNAs involved in UGA readthrough. In addition to other tRNA targets, FTSJ1 methylates the cytosine at position 34 of tRNA^Trp. Inhibition of this modification could increase the capacity of tRNA^Trp to misdecode and recognize the UGA stop codon. […] FTSJ1 and CTU1 overexpression were assessed by western-blot analysis (Fig. 5c).

[3] = target: T1, FTSJ1 (Homo sapiens, UniProt Q9UET6); experiment: UGA readthrough luciferase assay with FTSJ1 overexpression; type: cell-based
T1 construct: host or cells: HeLa
T1 sequence (Q9UET6 1-329): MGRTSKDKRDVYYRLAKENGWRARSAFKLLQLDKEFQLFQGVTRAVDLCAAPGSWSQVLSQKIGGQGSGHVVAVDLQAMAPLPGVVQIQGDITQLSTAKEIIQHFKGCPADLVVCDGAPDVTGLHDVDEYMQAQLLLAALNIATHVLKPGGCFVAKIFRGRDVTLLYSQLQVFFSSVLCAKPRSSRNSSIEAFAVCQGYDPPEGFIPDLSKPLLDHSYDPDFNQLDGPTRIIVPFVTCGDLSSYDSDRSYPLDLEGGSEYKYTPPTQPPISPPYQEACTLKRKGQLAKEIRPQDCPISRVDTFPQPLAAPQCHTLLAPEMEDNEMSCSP
From the text: as §1, §2

Structure (SMILES): CN[C@@H]1[C@@H](O)[C@@H](O[C@@H]2[C@@H](O)[C@H](O[C@H]3O[C@H]([C@@H](C)O)[C@@H](O)[C@H](O)[C@H]3N)[C@@H](N)C[C@H]2N)OC[C@]1(C)O [G418, reference compound]
- Correction of the UAA nonsense mutation (luciferase activity), in words ([1]; Fig. 1c): only weakly corrected the UAA nonsense mutation
- Luciferase activity, UAA PTC ([1]; average of 2 experiments): 495±34 and 495
- Luciferase activity, UAA PTC ([1]; experiment 1): 471
- Luciferase activity, UAA PTC ([1]; experiment 2): 519
- luciferase activity, average ([2]; 25µM): 5230.12
- luciferase activity, exp1 ([2]; 25µM): 3250.5
- luciferase activity, exp1*1,5 ([2]; 25µM): 4875.75
- luciferase activity, exp2 ([2]; 25µM): 5584.5
- luciferase activity, average ([2]; 600µM): 9792.88
- luciferase activity, exp1 ([2]; 600µM): 6265.5
- luciferase activity, exp1*1,5 ([2]; 600µM): 9398.25
- luciferase activity, exp2 ([2]; 600µM): 10187.5
- luciferase activity, average ([3]; 0.5µg FTSJ1, 25µM): 2984.12
- luciferase activity, exp1 ([3]; 0.5µg FTSJ1, 25µM): 2303.5
- luciferase activity, exp1*1,5 ([3]; 0.5µg FTSJ1, 25µM): 3455.25
- luciferase activity, exp2 ([3]; 0.5µg FTSJ1, 25µM): 2513
- luciferase activity, average ([3]; 0.5µg FTSJ1, 600µM): 3518
- luciferase activity, exp1 ([3]; 0.5µg FTSJ1, 600µM): 2352
- luciferase activity, exp1*1,5 ([3]; 0.5µg FTSJ1, 600µM): 3528
- luciferase activity, exp2 ([3]; 0.5µg FTSJ1, 600µM): 3508
- luciferase activity, average ([3]; 1µg FTSJ1, 25µM): 2661.5
- luciferase activity, exp1 ([3]; 1µg FTSJ1, 25µM): 1562
- luciferase activity, exp1*1,5 ([3]; 1µg FTSJ1, 25µM): 2343
- luciferase activity, exp2 ([3]; 1µg FTSJ1, 25µM): 2980
- luciferase activity, average ([3]; 1µg FTSJ1, 600µM): 3066.25
- luciferase activity, exp1 ([3]; 1µg FTSJ1, 600µM): 1933
- luciferase activity, exp1*1,5 ([3]; 1µg FTSJ1, 600µM): 2899.5
- luciferase activity, exp2 ([3]; 1µg FTSJ1, 600µM): 3233
- luciferase activity, average ([3]; 2µg FTSJ1, 25µM): 2020.12
- luciferase activity, exp1 ([3]; 2µg FTSJ1, 25µM): 1256.5
- luciferase activity, exp1*1,5 ([3]; 2µg FTSJ1, 25µM): 1884.75
- luciferase activity, exp2 ([3]; 2µg FTSJ1, 25µM): 2155.5
- luciferase activity, average ([3]; 2µg FTSJ1, 600µM): 2062.5
- luciferase activity, exp1 ([3]; 2µg FTSJ1, 600µM): 1540
- luciferase activity, exp1*1,5 ([3]; 2µg FTSJ1, 600µM): 2310
- luciferase activity, exp2 ([3]; 2µg FTSJ1, 600µM): 1815
